Results published in patent US10329309B2, “3-(3H-imidazo[4,5-B]pyridin-2-yl)-1H-pyrazolo[4,3-B]pyridines and therapeutic uses thereof” (Samumed, LLC, priority 2015, dated 2019).

Tests used:
Assay type in all cases: cell-based
[1] = test system: Wnt activity (Sp5-Luc reporter, SW480 colon carcinoma cells); experiment: Screening assay for Wnt activity: Sp5-Luc reporter gene assay in SW480 cells; settings: Homo sapiens, overnight incubation, 10-point dose-response from 10 μM
Source text: The screening assay for Wnt activity is described as follows. Reporter cell lines can be generated by stably transducing cancer cell lines (e.g., colon cancer) or primary cells (e.g., IEC-6 intestinal cells) with a lentiviral construct that includes a Wnt-responsive promoter driving expression of the firefly luciferase gene.
SW480 colon carcinoma cells were transduced with a lentiviral vector expressing luciferase with a human Sp5 promoter consisting of a sequence of eight TCF/LEF binding sites. SW480 cells stably expressing the Sp5-Luc reporter gene and a hygromycin resistance gene were selected by treatment with 150 μg/mL of hygromycin for 7 days. These stably transduced SW480 cells were expanded in cell culture and used for all further screening activities. Each compound was dissolved in DMSO as a 10 mM stock and used to prepare compound source plates. Serial dilution (1:3, 10-point dose-response curves starting from 10 μM) and compound transfer was performed using the ECHO 550 (Labcyte, Sunnyvale, Calif.) into 384-well white solid bottom assay plates (Greiner Bio-One) with appropriate DMSO backfill for a final DMSO concentration of 0.1%. For Sp5-Luc reporter gene assays, the cells were plated at 4,000 cells/well in 384-well plates with medium containing 1% fetal bovine serum and incubated overnight at 37° C. and 5% CO2. Following incubation, 20 μl of BrightGlo luminescence reagent (Promega) was added to each well of the 384-well assay plates. The plates were placed on an orbital shaker for 2 min and then luminescence was quantified using the Envision (Perkin Elmer) plate reader. Readings were normalized to DMSO only treated cells, and normalized activities were utilized for EC50 calculations using the dose-response log (inhibitor) vs. response -variable slope (four parameters) nonlinear regression feature available in GraphPad Prism 5.0 (or Dotmatics). For EC50 of >10 μM, the percent inhibition at 10 μM is provided.

IL-6 (THP-1 cells) = experiment: Inhibition of IL-6 in LPS-stimulated THP-1 monocytes (HTRF); settings: Homo sapiens, LPS 500 ng/mL, IL-6 by HTRF
Experimental: Human monocyte cell line (THP-1 cells; Catalog # TIB-202, ATCC, Manassas, Va.) were cultured in Roswell Park Memorial Institute (RPMI) 1640 Medium (Catalog #21870-100, Buffalo, N.Y.) with 1% L-glutamine, 1% HEPES, 1% Sodium Pyruvate, 2% Sodium Bicarbonate supplemented with 100 units/mL penicillin, 50 μg/mL streptomycin, 2-mercaptoethanol (0.05 mM) [basal medium] and 10% fetal bovine serum (Catalog #16140089, Life Technologies, Carlsbad, Calif.) at 37° C. and 5% CO2.
THP-1 cells were cultured in basal media with 1% FBS for 24 hours before the start of the assay. Each compound was dissolved in DMSO as a 10 mM stock and used to prepare compound source plates. Serial dilution (1:3, 10-point dose-response curves starting from 10 μM) and compound transfer was performed using the ECHO 550 (Labcyte, Sunnyvale, Calif.) into 384-well white low volume assay plates (Greiner Bio-One) with appropriate DMSO backfill for a final DMSO concentration of 0.1%. THP-1 cells were plated at 5000 cells/well in the 384-well plates and incubated at 37° C. for 2 h. 500 ng/mL of LPS was added after 2 hours and cells were incubated for another 22 hours at 37° C. Plates were spun in a centrifuge for 1 minute at […] and a mixture of anti-IL6 XL665, and anti-IL6 Cryptate diluted in reconstitution buffer (Cisbio Inc.) was added to each well. Following incubation for 3 hrs at room temperature, Homogeneous Time-Resolved Fluorescence (HTRF) was measured using the Envision (Perkin Elmer) at 665 nm and […]. The ratio of fluorescence at 665 nm to 620 nm was used as a readout for IL6 quantification. All samples were processed in duplicate. Readings were normalized to DMSO treated cells and normalized activities were utilized for EC50 calculations using the dose-response log (inhibitor) vs. response -variable slope (four parameters) nonlinear regression feature available in GraphPad Prism 5.0 (or Dotmatics). For EC50 of >10 μM, the percent inhibition at 10 μM is provided.

[2] = test system: primary human fibroblasts derived from IPF patients (LL29 cells), α-smooth muscle actin (αSMA); experiment: Inhibition of the fibrotic process: TGF-β1-treated primary human fibroblasts from IPF patients, αSMA staining; settings: Fibroblast, 96 h, LL29 fibroblasts from IPF patients, TGF-β1 20 ng/mL, 4 days, inhibition of fibrotic process
Source text: Representative compounds were screened using primary human fibroblasts (derived from IPF patients) treated with TGF-β1 to determine their ability to inhibit the fibrotic process.
Primary human fibroblasts derived from IPF patients (LL29 cells) [^1Xiaoqiu Liu, et. al., “Fibrotic Lung Fibroblasts Show Blunted Inhibition by cAMP Due to Deficient cAMP Response Element-Binding Protein Phosphorylation”, Journal of Pharmacology and Experimental Therapeutics (2005), 315(2), 678-687; ^2Watts, K. L., et. al., “RhoA signaling modulates cyclin D1 expression in human lung fibroblasts; implications for idiopathic pulmonary fibrosis”, Respiratory Research (2006), 7(1), 88] were obtained from American Type Culture Collection (ATCC) and expanded in F12 medium supplemented with 15% Fetal Bovine Serum and Penicillin/Streptomycin.
Each compound was dissolved in DMSO as a 10 mM stock and used to prepare compound source plates. Serial dilution (1:2, 11-point dose-response curves from 10 μM to 1.87 nM) and compound transfer was performed using the ECHO 550 (Labcyte, Sunnyvale, Calif.) into 384-well clear bottom assay plates (Greiner Bio-One) with appropriate DMSO backfill for a final DMSO concentration of 0.1%. LL29 cells are plated at 1,500 cells/well in 80 μL/well F12 medium supplemented with 1% Fetal Bovine Serum. One hour after addition of the cells, TGF-β1 (Peprotech; 20 ng/mL) was added to the plates to induce fibrosis (ref. 1 and 2 above). Wells treated with TGF-β1 and containing DMSO were used as controls. Cells were incubated at 37° C. and 5% CO2 for 4 days. Following incubation for 4 days, SYTOX green nucleic acid stain (Life Technologies [Thermo Fisher Scientific]) was added to the wells at a final concentration of 1 μM and incubated at room temperature for 30 min. Cells were then fixed using 4% formaldehyde (Electron Microscopy Sciences), washed 3 times with PBS followed by blocking and permeabilization using 3% Bovine Serum Albumin (BSA; Sigma) and 0.3% Triton X-100 (Sigma) in PBS. Cells were then stained with antibody specific to α-smooth muscle actin (αSMA; Abcam) (ref. 1 and 2 above) in 3% Bovine Serum Albumin (BSA; Sigma) and 0.3% Triton X-100 (Sigma) in PBS, and incubated overnight at 4° C. Cells were then washed 3 times with PBS, followed by incubation with Alexa Flor-647 conjugated secondary antibody (Life Technologies [Thermo Fisher Scientific]) and DAPI at room temperature for 1 hour. Cells were then washed 3 times with PBS and plates were sealed for imaging. αSMA staining was imaged by excitation at 630 nm and emission at 665 nm and quantified using the Compartmental Analysis program on the CellInsight CX5 (Thermo Scientific). Dead or apoptotic cells were excluded from analysis based on positive SYTOX green staining. % of total cells positive for αSMA were counted in each well and normalized to the average of 11 wells treated with TGF-β1 on the same plate using Dotmatics' Studies Software. The normalized averages (fold change over untreated) of 3 replicate wells for each compound concentration were used to create dose-responses curves and EC50 values were calculated using non-linear regression curve fit in the Dotmatics' Studies Software. For EC50 of >10 μM, the percent inhibition at 10 μM is provided.

SW480 colon cancer cells = experiment: Cell viability assay (CellTiter-Blue), four days; settings: Homo sapiens, 96 h, CellTiter-Blue cell viability
Experimental: Representative compounds were screened using the following assay procedure to assess the effect on cell viability as described below.
Each compound was dissolved in DMSO as a 10 mM stock and used to prepare compound source plates. Serial dilution (1:3, 8-point dose-response curves from 10 μM to 0.0045 μM) and compound transfer was performed using the ECHO 550 (Labcyte, Sunnyvale, Calif.) into 96-well clear bottom, black-walled plates (Corning-Costar).
Approximately 2×10^3 SW480 colon cancer cells were seeded into each well and allowed to incubate in the presence or absence of compound for four days at 37° C./5% CO2. Eight replicates of DMSO-treated cells served as controls and cells treated with compound were performed in duplicate.
After incubation, 20 μL of CellTiter-Blue (Promega) was added to each well allowed to incubate for approximately 3 hours. This reagent was a buffered solution which contains resazurin, metabolically active cells were able to reduce rezarurin (blue) into resorufin (pink) which was highly fluorescent. This measured fluorescence was used as a readout for cell viability.
After incubation, the plates were read at Ex 560 nm Em 590 nm (Cytation 3, BioTek). Dose-response curves were generated and EC50 concentration values were calculated using non-linear regression curve fit in the GraphPad Prism (San Diego, Calif.) or Dotmatics' Studies Software (Bishops Stortford, UK). For EC50 of >10 μM, the percent inhibition at 10 μM is provided.

Compound	EC50 [1] [µM]	EC50 (IL-6 (THP-1 cells)) [µM]	EC50 [2] [µM]	EC50 (SW480 colon cancer cells) [µM]
Fc1ccccc1-c1ccnc2[nH]c(-c3n[nH]c4ccc(-c5cncc(CNCC6CCCC6)c5)nc34)nc12 [Compound 81, 1-Cyclopentyl-N-((5-(3-(7-(2-fluorophenyl)-3H-imidazo[4,5-b]pyridin-2-yl)-1H-pyrazolo[4,3-b]pyridin-5-yl)pyridin-3-yl)methyl)methanamine]	1.12	5.75	1.6	2.64
c1ccc(CNCc2cncc(-c3ccc4[nH]nc(-c5nc6c(-c7cccnc7)ccnc6[nH]5)c4n3)c2)cc1 [Compound 108, N-Benzyl-1-(5-(3-(7-(pyridin-3-yl)-3H-imidazo[4,5-b]pyridin-2-yl)-1H-pyrazolo[4,3-b]pyridin-5-yl)pyridin-3-yl)methanamine]	4.86	0.131	8.89	3.32
FC1(F)CCN(Cc2cncc(-c3ccc4[nH]nc(-c5nc6c(N7CCCCC7)ccnc6[nH]5)c4n3)c2)C1 [Compound 194, 5-(5-((3,3-Difluoropyrrolidin-1-yl)methyl)pyridin-3-yl)-3-(7-(piperidin-1-yl)-3H-imidazo[4,5-b]pyridin-2-yl)-1H-pyrazolo[4,3-b]pyridine]	4.13	5.42	1.19	0.832
c1ccc(-c2ccc3[nH]nc(-c4nc5cccnc5[nH]4)c3n2)nc1 [Compound 280, 3-(3H-Imidazo[4,5-b]pyridin-2-yl)-5-(pyridin-2-yl)-1H-pyrazolo[4,3-b]pyridine]	0.687	0.115	3.88	2.29
c1ccc(CNCc2cncc(-c3ccc4[nH]nc(-c5nc6c(-c7ccsc7)ccnc6[nH]5)c4n3)c2)cc1 [Compound 304, N-Benzyl-1-(5-(3-(7-(thiophen-3-yl)-3H-imidazo[4,5-b]pyridin-2-yl)-1H-pyrazolo[4,3-b]pyridin-5-yl)pyridin-3-yl)methanamine]	1.97	4.26	1.34	1.4
c1cc(-c2ccoc2)c2nc(-c3n[nH]c4ccc(-c5cncc(CNCC6CCCC6)c5)nc34)[nH]c2n1 [Compound 333, 1-Cyclopentyl-N-((5-(3-(7-(furan-3-yl)-3H-imidazo[4,5-b]pyridin-2-yl)-1H-pyrazolo[4,3-b]pyridin-5-yl)pyridin-3-yl)methyl)methanamine]	2.72	2.62	1.42	2.59
c1csc(-c2ccnc3[nH]c(-c4n[nH]c5ccc(-c6ccncc6)nc45)nc23)c1 [Compound 354, 5-(Pyridin-4-yl)-3-(7-(thiophen-2-yl)-3H-imidazo[4,5-b]pyridin-2-yl)-1H-pyrazolo[4,3-b]pyridine]	0.731	1.39	0.387	0.405
CN(C)CCNc1cc(F)cc(-c2ccnc3[nH]c(-c4n[nH]c5ccc(-c6cncc(CNCC7CCCC7)c6)nc45)nc23)c1 [Compound 473, N^1-(3-(2-(5-(5-(((Cyclopentylmethyl)amino)methyl)pyridin-3-yl)-1H-pyrazolo[4,3-b]pyridin-3-yl)-3H-imidazo[4,5-b]pyridin-7-yl)-5-fluorophenyl)-N^2,N^2-dimethylethane-1,2-diamin]	3.64	2.62	1.53	2.83
Oc1cncc(-c2ccc3[nH]nc(-c4nc5c(N6CCCCC6)ccnc5[nH]4)c3n2)c1 [Compound 613, 5-(3-(7-(Piperidin-1-yl)-3H-imidazo[4,5-b]pyridin-2-yl)-1H-pyrazolo[4,3-b]pyridin-5-yl)pyridin-3-ol]	3.29	9.18	2.44	3.56
CN1CCN(c2ccnc3[nH]c(-c4n[nH]c5ccc(-c6cncc(OCc7ccccc7)c6)nc45)nc23)CC1 [Compound 646, 5-(5-(Benzyloxy)pyridin-3-yl)-3-(7-(4-methylpiperazin-1-yl)-3H-imidazo [4,5-b]pyridin-2-yl)-1H-pyrazolo[4,3-b]pyridine]	1.81	1.5	1.71	1.16
